Among the data in patent EP0942911B1, “BENZOPYRANOPYRROLE AND BENZOPYRANOPYRIDINE ALPHA-1 ADRENERGIC COMPOUNDS” (Abbott Laboratories, priority 1996, dated 1998) are Ki values, retold here.

Common to all, as to test: biochemical
The target of one assay is T1, α-1d adrenoreceptor (Rattus norvegicus, UniProt P23944).
T1 sequence (P23944 1-561): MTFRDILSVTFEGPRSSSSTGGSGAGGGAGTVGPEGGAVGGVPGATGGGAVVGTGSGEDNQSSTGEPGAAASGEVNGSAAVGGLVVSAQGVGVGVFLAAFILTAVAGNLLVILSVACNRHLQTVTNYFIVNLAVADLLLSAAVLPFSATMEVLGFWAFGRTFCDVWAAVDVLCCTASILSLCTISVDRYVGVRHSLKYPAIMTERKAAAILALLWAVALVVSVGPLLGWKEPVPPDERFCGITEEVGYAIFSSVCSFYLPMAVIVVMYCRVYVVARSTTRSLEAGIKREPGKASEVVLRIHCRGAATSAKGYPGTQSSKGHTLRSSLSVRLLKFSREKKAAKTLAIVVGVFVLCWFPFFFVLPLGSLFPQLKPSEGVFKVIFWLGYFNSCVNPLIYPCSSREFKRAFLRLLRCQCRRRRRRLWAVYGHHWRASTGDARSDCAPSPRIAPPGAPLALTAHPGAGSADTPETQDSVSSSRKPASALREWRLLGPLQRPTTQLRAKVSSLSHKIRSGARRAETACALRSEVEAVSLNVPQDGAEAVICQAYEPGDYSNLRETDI
The class given is binding. The conditions noted are these: [3H]-prazosin radioligand; cloned receptor in LTK cell membranes; read-out: Radioligand Binding (Ki, nM) 1d (Rat). In short, it runs like this:
(§1)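 Stable LTK fibroblast lines carrying the bovine, hamster or rat α-1 subtype genes supply membranes, homogenized in Tris-HCl/EDTA at pH 7.4. A separate rat submaxillary gland preparation covers α-1A. Bound radioligand is quantified by liquid scintillation.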

Assay [1] has as its target T2, α-1A adrenoreceptor (rat submaxillary gland) (Rattus norvegicus, UniProt P43140).
T2 sequence (P43140 1-466): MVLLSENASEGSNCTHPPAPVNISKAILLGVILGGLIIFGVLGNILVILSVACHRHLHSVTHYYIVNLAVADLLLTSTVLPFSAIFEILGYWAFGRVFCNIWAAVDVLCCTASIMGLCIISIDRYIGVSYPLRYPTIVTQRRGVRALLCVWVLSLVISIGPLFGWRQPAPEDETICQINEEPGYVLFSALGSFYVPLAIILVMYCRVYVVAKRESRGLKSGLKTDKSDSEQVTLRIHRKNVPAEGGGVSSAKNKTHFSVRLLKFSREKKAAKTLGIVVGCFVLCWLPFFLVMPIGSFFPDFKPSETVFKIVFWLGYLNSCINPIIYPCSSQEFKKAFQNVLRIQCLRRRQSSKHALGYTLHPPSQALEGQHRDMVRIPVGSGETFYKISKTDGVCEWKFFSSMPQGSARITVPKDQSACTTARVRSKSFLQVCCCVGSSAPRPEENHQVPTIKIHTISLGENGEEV
The class given is binding. The conditions noted are these: [3H]-prazosin radioligand; rat submaxillary gland membranes; read-out: Radioligand Binding (Ki, nM) 1A (Rat). Put shortly: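 Membranes were prepared from rat submaxillary glands as the α-1A adrenoreceptor source. Competition binding followed Greengrass and Bremner, with bound radioligand measured by scintillation counting.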

Another assay deals with T3, α-1a adrenoreceptor (Bos taurus, UniProt P18130).
T3 sequence (P18130 1-466): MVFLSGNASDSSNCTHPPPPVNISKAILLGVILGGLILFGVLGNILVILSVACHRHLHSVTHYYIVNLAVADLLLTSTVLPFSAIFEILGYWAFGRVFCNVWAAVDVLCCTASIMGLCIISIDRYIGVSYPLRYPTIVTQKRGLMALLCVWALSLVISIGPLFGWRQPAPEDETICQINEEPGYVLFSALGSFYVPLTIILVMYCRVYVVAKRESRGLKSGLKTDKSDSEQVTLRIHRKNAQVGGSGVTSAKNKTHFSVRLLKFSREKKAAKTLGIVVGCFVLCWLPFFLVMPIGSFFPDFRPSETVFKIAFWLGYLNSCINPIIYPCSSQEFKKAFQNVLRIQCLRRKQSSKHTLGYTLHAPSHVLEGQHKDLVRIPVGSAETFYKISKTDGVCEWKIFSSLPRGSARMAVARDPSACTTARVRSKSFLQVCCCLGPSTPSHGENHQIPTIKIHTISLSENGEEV
It counts as binding, bovine. The conditions noted are these: [3H]-prazosin radioligand; cloned receptor in LTK cell membranes; read-out: Radioligand Binding (Ki, nM) 1a (Bovine). Put shortly:
as §1

The next assay addresses T4, α-1b adrenoreceptor (Mesocricetus auratus, UniProt P18841).
T4 sequence (P18841 1-515): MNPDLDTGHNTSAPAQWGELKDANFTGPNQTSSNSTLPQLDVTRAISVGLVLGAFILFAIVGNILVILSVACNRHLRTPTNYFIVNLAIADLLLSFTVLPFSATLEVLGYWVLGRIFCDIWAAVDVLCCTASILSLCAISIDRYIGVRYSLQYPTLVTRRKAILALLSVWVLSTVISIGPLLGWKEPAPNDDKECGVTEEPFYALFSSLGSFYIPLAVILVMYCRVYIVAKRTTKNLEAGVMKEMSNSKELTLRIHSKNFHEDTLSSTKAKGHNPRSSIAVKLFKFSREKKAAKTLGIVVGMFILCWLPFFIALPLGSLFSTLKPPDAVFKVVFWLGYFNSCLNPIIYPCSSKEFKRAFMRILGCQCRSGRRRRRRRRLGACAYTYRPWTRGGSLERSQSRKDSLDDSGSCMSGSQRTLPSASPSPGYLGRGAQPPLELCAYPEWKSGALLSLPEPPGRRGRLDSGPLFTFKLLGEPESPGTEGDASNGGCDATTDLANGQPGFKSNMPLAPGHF
It counts as binding, hamster. The conditions noted are these: [3H]-prazosin radioligand; cloned receptor in LTK cell membranes; read-out: Radioligand Binding (Ki, nM) 1b (Hamster). In short, it runs like this:
as §1

Structures can show the parent of a compound that is named as a salt.

`COc1cccc2c1[C@@H]1CN(CCCCn3c(=O)[nH]c4c(sc5ncc(-c6ccsc6)nc54)c3=O)C[C@@H]1CO2` [Example 57, 3-[4-((3aR,9bR)-cis-9-Methoxy-1,2,3,3a,4,9b-hexahydro-[1]-benzopyrano[3,4-c]pyrrol-2-yl)butyl]-8-(3-thienyl)-pyrazino[2',3':4,5]thieno[3,2-d]pyrimidine-2,4(1H,3H)-dione dihydrochloride]: the Ki at α-1d adrenoreceptor was found to be 0.507 nM; in assay [1], 0.682 nM; on α-1a adrenoreceptor it was 0.078 nM; on α-1b adrenoreceptor, 19.3 nM.
The corresponding values for `COc1cccc2c1[C@@H]1CN(CCCCn3c(=O)[nH]c4c(sc5ccc(-c6cccnc6)nc54)c3=O)C[C@H]1CO2` [Example 58, 3-[4-((3aS,9bR)-trans-9-Methoxy-1,2,3,3a,4,9b-hexahydro-[1]-benzopyrano[3,4-c]pyrrol-2-yl)butyl]-8-(3-pyridyl)-pyrido[2',3':4,5]thieno[3,2-d]pyrimidine-2,4(1H,3H)-dione trihydrochloride] are 0.039 nM, 0.273 nM, 0.188 nM and 2.08 nM.
On the same counts, the results for `COc1cccc2c1[C@@H]1CN(CCCCn3c(=O)[nH]c4c(sc5ncc(-c6ccsc6)nc54)c3=O)C[C@H]1CO2` [Example 59, 3-[4-((3aS,9bR)-trans-9-Methoxy-1,2,3,3a,4,9b-hexahydro-[1]-benzopyrano[3,4-c]pyrrol-2-yl)butyl]-8-(3-thienyl)-pyrazino[2',3':4,5]thieno[3,2-d]pyrimidine-2,4(1H,3H)-dione dihydrochloride] are 0.257 nM, 0.166 nM, 0.049 nM and 6.74 nM.
With `COc1cccc2c1[C@@H]1CN(CCCCn3c(=O)[nH]c4c(sc5ncc(-c6cccnc6)nc54)c3=O)C[C@H]1CO2` [Example 60, 3-[4-((3aS,9bR)-trans-9-Methoxy-1,2,3,3a,4,9b-hexahydro-[1]-benzopyrano[3,4-c]pyrrol-2-yl)butyl]-8-(3-pyridyl)-pyrazino[2',3':4,5]thieno[3,2-d]pyrimidine-2,4(1H,3H)-dione dihydrochloride], the Ki on α-1d adrenoreceptor turned out to be 1.82 nM; in assay [1], 0.187 nM; at α-1a adrenoreceptor it was 0.078 nM; on α-1b adrenoreceptor, 14.2 nM.
Consider `COc1cccc2c1[C@@H]1CN(CCCCn3c(=O)[nH]c4c(sc5ncc(-c6cccnc6)nc54)c3=O)C[C@@H]1CO2` [Example 61, 3-[4-((3aR,9bR)-cis-9-Methoxy-1,2,3,3a,4,9b-hexahydro-[1]-benzopyrano[3,4-c]pyrrol-2-yl)butyl]-8-(3-pyridyl)-pyrazino[2',3':4,5]thieno[3,2-d]pyrimidine-2,4(1H,3H)-dione dihydrochloride], for which the Ki was 0.336 nM at α-1d adrenoreceptor, 0.152 nM in assay [1], 0.15 nM on α-1a adrenoreceptor and 8.85 nM at α-1b adrenoreceptor.
On the same counts, the results for `COc1cccc2c1[C@@H]1CN(CCCCn3c(=O)[nH]c4c(sc5ncc(-c6ccoc6)nc54)c3=O)C[C@@H]1CO2` [Example 62, 3-[4-((3aR,9bR)-cis-9-Methoxy-1,2,3,3a,4,9b-hexahydro-[1]-benzopyrano[3,4-c]pyrrol-2-yl)butyl]-8-(3-furyl)-pyrazino[2',3':4,5]thieno[3,2-d]pyrimidine-2,4(1H,3H)-dione dihydrochloride] are 411 nM, 983 nM, 52 nM and 1150 nM.
The corresponding values for `COc1cccc2c1[C@@H]1CCN(CCCn3c(=O)[nH]c4c(sc5cccnc54)c3=O)C[C@H]1CO2` [Example 92, 3-[3-((4aS,10bR)-trans-10-Methoxy-1,3,4,4a,5,10b-hexahydro-2H-[1]-benzopyrano[3,4-c]pyrido-3-yl)propyl]-pyrido[2',3':4,5]thieno[3,2-d]pyrimidine-2,4(1H,3H)-dione dihydrochloride] are 18.5 nM, 3.85 nM, 2.2 nM and 45.1 nM.
In the case of `COc1cccc2c1[C@H]1CCN(CCCn3c(=O)[nH]c4c(sc5cccnc54)c3=O)C[C@@H]1CO2` [Example 93, 3-[3-((4aR,10bS)-trans-10-Methoxy-1,3,4,4a,5,10b-hexahydro-2H-[1]-benzopyrano[3,4-c]pyrido-3-yl)propyl]-pyrido[2',3':4,5]thieno[3,2-d]pyrimidine-2,4(1H,3H)-dione dihydrochloride], the Ki on α-1d adrenoreceptor came out at 11.5 nM; in assay [1], 4.04 nM; on α-1a adrenoreceptor, 1.2 nM; on α-1b adrenoreceptor it was 3.67 nM.
For the compound `COc1cccc2c1[C@H]1CCN(CCCCn3c(=O)[nH]c4c(sc5cccnc54)c3=O)C[C@@H]1CO2` [Example 94, 3-[4-((4aR,10bS)-trans-10-Methoxy-1,3,4,4a,5,10b-hexahydro-2H-[1]-benzopyrano[3,4-c]pyrido-3-yl)butyl]-pyrido[2',3':4,5]thieno[3,2-d]pyrimidine-2,4(1H,3H)-dione dihydrochloride], the Ki was 0.361 nM at α-1d adrenoreceptor, 0.185 nM in assay [1], 0.097 nM at α-1a adrenoreceptor and 1.97 nM on α-1b adrenoreceptor.
Take `COc1cccc2c1[C@H]1CCN(CCCCn3c(=O)[nH]c4c(sc5ncc(Cl)nc54)c3=O)C[C@@H]1CO2` [Example 96, 3-[4-((4aR,10bS)-trans-10-Methoxy-1,3,4,4a,5,10b-hexahydro-2H-[1]-benzopyrano[3,4-c]pyrido-3-yl)butyl]-8-chloro-pyrazino[2',3':4,5]thieno[3,2-d]pyrimidine-2,4(1H,3H)-dione dihydrochloride]: the Ki came to 0.816 nM at α-1d adrenoreceptor, 0.816 nM in assay [1], 0.211 nM on α-1a adrenoreceptor and 10.4 nM on α-1b adrenoreceptor.
Consider `COc1ccc2sc3c(=O)n(CCCCN4CC[C@H]5c6c(OC)cccc6OC[C@@H]5C4)c(=O)[nH]c3c2n1` [Example 98, 3-[4-((4aS,10bR)-trans-10-Methoxy-1,3,4,4a,5,10b-hexahydro-2H-[1]-benzopyrano[3,4-c]pyrido-3-yl)butyl]-8-methoxy-pyrido[2',3':4,5]thieno[3,2-d]pyrimidine-2,4(1H,3H)-dione hydrochloride], for which the inhibitory constant (Ki) on α-1d adrenoreceptor was 0.324 nM; in assay [1], 1.02 nM; at α-1a adrenoreceptor, 0.121 nM; on α-1b adrenoreceptor it was 2.65 nM.

One may read the Ki as a dissociation constant, usually derived from enzyme kinetics or from competition with a known ligand.
